In one test the test system is COX-1. Put plainly: Assay for COX-1 activity in vitro (PGE2 formed, ELISA). It counts as biochemical, human or murine. The settings on record: recombinant COX-1 from SF9 insect cells, arachidonic acid 10 μM, pH 8.0, 10-20 min pre-incubation. The procedure: The COX-2 inhibition activity of the compounds of this invention illustrated in the Examples was determined by the following methods.
a. Preparation of recombinant COX baculoviruses
Recombinant baculoviruses were isolated by transfecting 4 μg of baculovirus transfer vector DNA into SF9 insect cells (2×10^8) along with 200 ng of linearized baculovirus plasmid DNA by the calcium phosphate method. See M. D. Summers and G. E. Smith, A Manual of Methods for Baculovirus Vectors and Insect Cell Culture Procedures, Texas Agric. Exp. Station Bull. […] Recombinant viruses were purified by three rounds of plaque purification and high titer (10^7-10^8 pfu/mL) stocks of virus were prepared. For large scale production, SF9 insect cells were infected in 10 liter fermentors (0.5×10^6 /mL) with the recombinant baculovirus stock such that the multiplicity of infection was 0.1. […] The homogenate was centrifuged at 10,000×G for 30 minutes, and the resultant supernatant was stored at -80° C. before being assayed for COX activity.
COX activity was assayed as PGE2 formed/pg protein/time using an ELISA to detect the prostaglandin released. CHAPS-solubilized insect cell membranes containing the appropriate COX enzyme were incubated in a potassium phosphate buffer (50 mM, pH 8.0) containing epinephrine, phenol, and heme with the addition of arachidonic acid (10 μM). […] The PGE2 formed was measured by standard ELISA technology (Cayman Chemical).
Background: ELISA stands for enzyme-linked immunosorbent assay.

A further test deals with rat paw edema. Description: Rat Carrageenan Foot Pad Edema Test. It counts as in vivo, rat (Male Sprague-Dawley). The settings on record: oral, 3 h after carrageenan injection. The procedure: The carrageenan foot edema test was performed with materials, reagents and procedures essentially as described by Winter, et al., (Proc. Soc. Exp. Biol. Med., 111, 544 (1962)). Male Sprague-Dawley rats were selected in each group so that the average body weight was as close as possible. Rats were fasted with free access to water for over sixteen hours prior to the test. The rats were dosed orally (1 mL) with compounds suspended in vehicle containing 0.5% methylcellulose and 0.025% surfactant, or with vehicle alone. One hour later a subplantar injection of 0.1 mL of 1% solution of carrageenan/sterile 0.9% saline was administered and the volume of the injected foot was measured with a displacement plethysmometer connected to a pressure transducer with a digital indicator. Three hours after the injection of the carrageenan, the volume of the foot was again measured. The average foot swelling in a group of drug-treated animals was compared with that of a group of placebo-treated animals and the percentage inhibition of edema was determined (Otterness and Bliven, Laboratory Models for Testing NSAIDs, in Non-steroidal Anti-Inflammatory Drugs, (J. Lombardino, ed. 1985)).

Another test in a line: Analgesia (Table I). It counts as in vivo.

As to `Cc1ccc(-c2ccc(S(C)(=O)=O)cc2)n1-c1ccc(F)cc1` [Example 1, 1-(4-Fluorophenyl)-2-methyl-5-[4-(methylsulfonyl)phenyl]-1H-pyrrole], the IC50 (in general, the concentration at which inhibition is half-maximal) in the test on COX-1 was more than 100 µM.

As to `Cc1ccc(-c2ccc(S(C)(=O)=O)cc2)n1C1CCCCC1` [Example 7, 1-Cyclohexyl-2-methyl-5-[4-(methylsulfonyl)phenyl]-1H-pyrrole], in the test with COX-1, the IC50 came to 62.4 µM. Turning to `CS(=O)(=O)c1ccc(-n2cccc2-c2ccc(F)cc2)cc1` [Example 8, 2-(4-Fluorophenyl)--1-[4-(methylsulfonyl)phenyl]-1H-pyrrole], in the test with rat paw edema, the “RAT PAW EDEMA % Inhibition @ 30mg/kg body weight” value is reported as 56%. Further, the “ANALGESIA % Inhibition @ 30mg/kg body weight” value in the test “Analgesia (Table I)” is 47%. Regarding `NS(=O)(=O)c1ccc(-n2cccc2-c2ccc(F)cc2)cc1` [Example 9, 4-[2-(4-Fluorophenyl)-1H-pyrrol-1-yl]benzenesulfonamide], the IC50 in the test with COX-1 stood at 10.4 µM. `CS(=O)(=O)c1ccc(-c2cccn2-c2ccc(F)cc2)cc1` [Example 10, 1-(4-Fluorophenyl)-2-[4-(methylsulfonyl)phenyl]-1H-pyrrole]: the IC50 in the test on COX-1 was more than 100 µM.

`Cc1c(S(=O)(=O)C(F)(F)F)cc(-c2ccc(S(C)(=O)=O)cc2)n1-c1ccc(F)cc1` [Example 16, 1-(4-Fluorophenyl)-2-methyl-5-[4-(methylsulfonyl)phenyl]-3-[(trifluoromethyl)sulfonyl]-1H-pyrrole]: the IC50 in the test on COX-1 was more than 100 µM. `Cc1c(COc2cccc(Cl)c2)cc(-c2ccc(S(C)(=O)=O)cc2)n1-c1ccc(F)cc1` [Example 25, 3-[(3-Chlorophenoxy)methyl]-1-(4-fluorophenyl)-2-methyl-5-[4-(methylsulfonyl)phenyl]-1H-pyrrole]: the IC50 in the test with COX-1 is more than 100 µM. The same measure, in the same setting: the figure for `Cc1c(COc2ccc(Cl)cc2)cc(-c2ccc(S(C)(=O)=O)cc2)n1-c1ccc(F)cc1` [Example 26, 3-[(4-Chlorophenoxy)methyl]-1-(4-fluorophenyl)-2-methyl-5-[4-(methylsulfonyl)phenyl]-1H-pyrrole] is more than 100 µM.

For the origin of these results see patent publication US5935990A, “Substituted pyrrolyl compounds for the treatment of inflammation” (G.D. Searle & Co., priority 1997, dated 1999).
